The values below come from patent US20070225292A1, “Therapeutic Compounds: Pyridine as Scaffold” (priority 2004, published 2007).

Assay [1] has as its target T1, Human CB1 receptor (Homo sapiens, UniProt P21554).
T1 construct: purchased Receptor Biology
Briefly: hCB1 receptor binding (3H-CP55,940 displacement). As to conditions: human CB1 membranes, Ki=IC50/(1+[rad]/Kd). The protocol:
Human CB1 receptor from Receptor Biology (hCB1) or human CB2 receptor from BioSignal (hCB2) membranes are thawed at 37° C., passed 3 times through a 25-gauge blunt-end needle, diluted in the cannabinoid binding buffer (50 mM Tris, 2.5 mM EDTA, 5 mM MgCl2, and 0.5 mg/mL BSA fatty acid free, pH 7.4) and aliquots containing the appropriate amount of protein are distributed in 96-well plates. The IC50 of the compounds of the invention at hCB1 and hCB2 are evaluated from 10-point dose-response curves done with ^3H-CP55,940 at 20000 to 25000 dpm per well (0.17-0.21 nM) in a final volume of 300 μl. The total and non-specific binding are determined in the absence and presence of 0.2 μM of HU210 respectively. The plates are vortexed and incubated for 60 minutes at room temperature, filtered through Unifilters GF/B (presoaked in 0.1% polyethyleneimine) with the Tomtec or Packard harvester using 3 mL of wash buffer (50 mM Tris, 5 mM MgCl2, 0.5 mg BSA pH 7.0). The filters are dried for 1 hour at 55° C. The radioactivity (cpm) is counted in a TopCount (Packard) after adding 65 μl/well of MS-20 scintillation liquid.
Based on the above assays, the dissociation constant (Ki) for a particular compound of the invention towards a particular receptor is determined using the following equation: Ki=IC50/(1+[rad]/Kd),
Wherein IC50 is the concentration of the compound of the invention at which 50% displacement has been observed;
[rad] is a standard or reference radioactive ligand concentration at that moment; and
Kd is the dissociation constant of the radioactive ligand towards the particular receptor.

Assay [2] deals with T1, Human CB1 receptor. Briefly: hCB1 GTPγS binding. The class given is biochemical. As to conditions: human CB1 membranes, GTPg35S binding; for Emax: maximal stimulated binding with 10 μM Win 55,212-2; for EC50: read-out: EC5O (hCB1). The protocol: Human CB1 receptor from Receptor Biology (hCB1) or human CB2 receptor membranes (BioSignal) are thawed at 37° C., passed 3 times through a 25-gauge blunt-end needle and diluted in the GTPγS binding buffer (50 mM Hepes, 20 mM NaOH, 100 mM NaCl, 1 mM EDTA, 5 mM MgCl2, pH 7.4, 0.1% BSA). The EC50 and Emax of the compounds of the invention are evaluated from 10-point dose-response curves done in 300 μl with the appropriate amount of membrane protein and 100000-130000 dpm of GTPg^35S per well (0.11-0.14 nM). The basal and maximal stimulated binding is determined in absence and presence of 1 μM (hCB2) or 10 μM (hCB1) Win 55,212-2 respectively. The membranes are pre-incubated for 5 minutes with 56.25 μM (hCB2) or […] (hCB1) GDP prior to distribution in plates (15 μM (hCB2) or 30 μM (hCB1) GDP final). The plates are vortexed and incubated for 60 minutes at room temperature, filtered on Unifilters GF/B (presoaked in water) with the Tomtec or Packard harvester using 3 ml of wash buffer (50 mM Tris, 5 mM MgCl2, 50 mM NaCl, pH 7.0). The filters are dried for 1 hour at 55° C. The radioactivity (cpm) is counted in a TopCount (Packard) after adding 65 μl/well of MS-20 scintillation liquid. Antagonist reversal studies are done in the same way except that (a) an agonist dose-response curve is done in the presence of a constant concentration of antagonist, or (b) an antagonist dose-response curve is done in the presence of a constant concentration of agonist.
In general terms: GTPγS resists hydrolysis and so accumulates on activated G proteins.

T1 sequence (P21554 whole entry): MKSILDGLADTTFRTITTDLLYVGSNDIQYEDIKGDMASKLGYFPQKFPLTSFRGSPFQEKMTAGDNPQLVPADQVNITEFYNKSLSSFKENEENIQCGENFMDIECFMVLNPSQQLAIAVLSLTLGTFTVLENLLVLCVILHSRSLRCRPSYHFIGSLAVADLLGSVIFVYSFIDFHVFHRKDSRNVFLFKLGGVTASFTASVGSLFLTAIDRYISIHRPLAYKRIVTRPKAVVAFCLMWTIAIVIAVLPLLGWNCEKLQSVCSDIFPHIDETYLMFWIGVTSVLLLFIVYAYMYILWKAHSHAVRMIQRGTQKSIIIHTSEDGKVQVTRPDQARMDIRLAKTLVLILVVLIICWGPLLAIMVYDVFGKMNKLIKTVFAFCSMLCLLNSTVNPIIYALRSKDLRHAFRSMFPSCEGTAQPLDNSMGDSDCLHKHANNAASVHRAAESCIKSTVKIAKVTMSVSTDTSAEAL

`O=C(NCC1CCCCC1)c1ncccc1NC(=O)c1ccc(N2CCC2)c2ccccc12` [Example 171, 3-[(4-Azetidin-1-yl-1-naphthoyl)amino]-N-(cyclohexylmethyl)pyridine-2-carboxamide] showed an inhibitory constant (Ki) at Human CB1 receptor [1] of 0.057 µM. At Human CB1 receptor [2], the Emax was 71% and the EC50 is 0.217 µM.

As for `Cc1ccc(C(=O)Nc2cccnc2C(=O)NCc2ccccn2)c2ccccc12` [Example 80, 3-(4-Methyl 1-naphthoylamino)-N-(pyridin-2-ylmethyl)pyridine-2-carboxamide], on Human CB1 receptor [1], the Ki was found to be 0.221 µM. At Human CB1 receptor [2], the maximal response (Emax) is 75% and the EC50 stood at 1.23 µM.

Compound `O=C(NCC1CCOCC1)c1nccnc1NC(=O)c1cccc2ccccc12` [Example 43, 3-(1-Naphthoylamino)-N-(tetrahydro-2H-pyran-4-ylmethyl)pyrazine-2-carboxamide] showed a Ki at Human CB1 receptor [1] of 0.181 µM. Further, on Human CB1 receptor [2], the maximum response (Emax) came to 112% and the EC50 stood at 0.907 µM.

On to `O=C(NCC1CCCC1)c1ncccc1NC(=O)c1cccc2ccccc12` [Example 13, N-(Cyclopentylmethyl)-3-[(1-naphthalenylcarbonyl)amino]-2-pyridinecarboxamide], for which affinity at Human CB1 receptor [1] was put at a Ki of 0.012 µM. Also, on Human CB1 receptor [2], the maximum response (Emax) came to 105% and the EC50 came to 0.046 µM.

The Ki is a dissociation constant, usually derived from enzyme kinetics or from competition with a known ligand. A lower Ki goes with tighter binding. For orientation: Emax means the maximal effect, on the per cent scale that the assay sets.
